Experimental data reported in ChEMBL document CHEMBL5729318, “Pharmaceutical compounds for treatment of medical disorders” (2022).

Biological target: Complement factor D (Homo sapiens, UniProt P00746)
Test: Human Factor D Assay: Human Factor D (purified from human serum, Complement Technology, Inc.) at 80 nM final concentration is incubated with test compound at various concentrations for 5 min at room temperature in 50 mM Tris, 1M NaCl, pH 7.5. A synthetic substrate Z-L-Lys-SBzl and DTNB (Ellman's reagent) are added to final concentrations of 100 μM each. Absorbance at 405 nm (A405) is recorded at 30 second intervals for 30 min using a microplate spectrophotometer. IC50 values are calculated by nonlinear regression of Complement Factor D reaction rates as a function of test compound concentration.

Complement factor D, sequence (P00746 whole entry): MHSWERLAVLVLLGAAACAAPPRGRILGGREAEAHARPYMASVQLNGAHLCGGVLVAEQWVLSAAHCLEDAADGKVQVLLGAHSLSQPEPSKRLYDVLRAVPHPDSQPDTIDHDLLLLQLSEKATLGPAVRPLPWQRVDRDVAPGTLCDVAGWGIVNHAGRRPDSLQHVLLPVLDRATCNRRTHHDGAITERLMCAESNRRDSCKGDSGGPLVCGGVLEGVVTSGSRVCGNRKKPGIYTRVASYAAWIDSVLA

| SMILES | IC50 [nM] |
| --- | --- |
| CC(=O)c1nn(CC(=O)N2C[C@H](F)C[C@H]2C(=O)Nc2cccc(Br)n2)c2ccc(C3OCC(N)CO3)cc12 (stereo partly specified) | < 1000 |
| CC(=O)c1nn(CC(=O)N2[C@H](C(=O)Nc3nc(Br)ccc3C)C[C@@]3(C)C[C@@H]23)c2ccc(N)cc12 | < 1000 |
| CC(=O)c1nn(CC(=O)N2[C@H](C(=O)Nc3cccc(Br)n3)C[C@@]3(C)C[C@@H]23)c2c(C)cccc12 | < 1000 |
| CC(=O)c1nn(CC(=O)N2[C@H](C(=O)Nc3nc(Br)ccc3C)C[C@@]3(C)C[C@@H]23)c2c(C)cccc12 | < 1000 |
| CC(=O)c1nn(CC(=O)N2[C@H](C(=O)Nc3nc(Br)ccc3C)C[C@@]3(C)C[C@@H]23)c2ccc(N(C)C)cc12 | < 1000 |
| CC(=O)c1nn(CC(=O)N2[C@H](C(=O)Nc3cccc(Br)n3)C[C@@]3(C)C[C@@H]23)c2ccc(NC(=O)N3CCC(F)(F)C3)cc12 | < 1000 |
